According to the OligoGym collection:
Bases are written 5' to 3'; sugars and linkages follow in the same order, as letters with counts (s phosphorothioate, o phosphodiester; PS: all linkages phosphorothioate). The collection does not say whether C is 5-methylated. l = locked nucleic acid (LNA); d = 2'-deoxy (DNA)

Biological target: Tau
Test: rat primary cortical neurons, FLIPR, 25 uM ASO

First: TGGATCAGAGGGTCTG (sugars l3 d10 l3, PS)
Second: TGGATGTTGCCTAATG (sugars l3 d10 l3, PS)
The calcium oscillation score of the first is higher: 7.41 % of control for the first, 0 % of control for the second.

Compared with “TGGATGTTGCCTAATGAGCC (sugars l3 d14 l3, PS)”, “TGGCCATCTTATGCTGACCA (sugars l3 d14 l3, PS)” is higher in calcium oscillation score: 0 % of control for the first, 29.4 % of control for the second.

Compared with TGGCGACTTGTACACG (sugars l3 d10 l3, PS), TGGCGGTGACTGCGA (sugars l3 d9 l3, PS) is higher in calcium oscillation score: 70.6 % of control for the first, 107 % of control for the second.

Compared with TGGCGTTCTCGCGG (sugars l3 d8 l3, PS), TGGCTTTGGCGTTCTC (sugars l3 d10 l3, PS) is lower in calcium oscillation score: 93.9 % of control for the first, 28.7 % of control for the second.

First: TGGGTGATATTGTCCA (sugars l3 d10 l3, PS)
Second: TGGGTGATATTGTCCAGGGA (sugars l3 d14 l3, PS)
The calcium oscillation score of the first is higher: 92.6 % of control for the first, 0 % of control for the second.

Going from TGGTCAAGGCTTTGGG (sugars l3 d10 l3, PS) to TGGTTAGCCCTAAAGT (sugars l3 d10 l3, PS), the calcium oscillation score rises from 0 % of control to 77 % of control.

First: TGGTTAGCCCTAAAGTCCCA (sugars l3 d14 l3, PS)
Second: TGGTTTATGATGGATGTTGC (sugars l3 d14 l3, PS)
The calcium oscillation score of the first is higher: 74.5 % of control for the first, 0 % of control for the second.

Compared with “TGGTTTGTAGACTATTTGCA (sugars l3 d14 l3, PS)”, “TGTAATTTTCCCTACAT (sugars l3 d11 l3, PS)” is higher in calcium oscillation score: 0 % of control for the first, 91.3 % of control for the second.

Going from TGTACACGATCTCCGC (sugars l3 d10 l3, PS) to TGTAGACTATTTGC (sugars l3 d8 l3, PS), the calcium oscillation score falls from 145 % of control to 30.9 % of control.

Compared with TGTAGACTATTTGCAC (sugars l3 d10 l3, PS), “TGTAGACTATTTGCACACTG (sugars l3 d14 l3, PS)” is lower in calcium oscillation score: 93.3 % of control for the first, 7.41 % of control for the second.

Going from TGTCATCGCTTCCAGT (sugars l3 d10 l3, PS) to TGTCCAAACTTTTACT (sugars l4 d8 l4, PS), the calcium oscillation score falls from 88 % of control to 60.8 % of control.

Compared with “TGTCCAAACTTTTACTC (sugars l4 d10 l3, PS)”, “TGTCCAGGGACCCAATCTTC (sugars l3 d14 l3, PS)” is lower in calcium oscillation score: 65.3 % of control for the first, 39.9 % of control for the second.

Compared with “TGTCCTCACTTTACACAT (sugars l4 d12 l2, PS)”, TGTCGATGCTGCCG (sugars l3 d8 l3, PS) is higher in calcium oscillation score: 39.8 % of control for the first, 52.2 % of control for the second.

First: TGTCGATGCTGCCGGT (sugars l3 d10 l3, PS)
Second: TGTGATGCAGGAGTT (sugars l3 d9 l3, PS)
The calcium oscillation score of the first is lower: 34.5 % of control for the first, 70.5 % of control for the second.

Going from TGTGATGCAGGAGTTG (sugars l3 d10 l3, PS) to TGTTGCCTAATGAGCC (sugars l3 d10 l3, PS), the calcium oscillation score rises from 28.7 % of control to 172 % of control.

First: TGTTGCCTAATGAGCCACAC (sugars l3 d14 l3, PS)
Second: TGTTTGATATTATCCT (sugars l3 d10 l3, PS)
The calcium oscillation score of the first is lower: 54.2 % of control for the first, 104 % of control for the second.

Compared with “TTAACCAATTAACCGAACTG (sugars l3 d14 l3, PS)”, “TTAACCAGCTAGTGGTGCCA (sugars l3 d14 l3, PS)” is lower in calcium oscillation score: 122 % of control for the first, 0 % of control for the second.

Compared with “TTAACCCTTGATCATATTTG (sugars l3 d14 l3, PS)”, TTAACCGAACTGCGAG (sugars l3 d10 l3, PS) is higher in calcium oscillation score: 14.3 % of control for the first, 46.1 % of control for the second.

Compared with “TTAACTCAAATCAATTCTCA (sugars l4 d12 l4, PS)”, TTAACTCATCAACACCT (sugars l4 d9 l4, PS) is higher in calcium oscillation score: 62 % of control for the first, 86.6 % of control for the second.

First: TTAACTCATCAACACCTT (sugars l3 d11 l4, PS)
Second: TTAACTCATCAACACCTTT (sugars l3 d12 l4, PS)
The calcium oscillation score of the first is higher: 114 % of control for the first, 84 % of control for the second.

Going from “TTAACTCATCAACACCTTTT (sugars l4 d13 l3, PS)” to “TTAAGTGATTAACCAATTAA (sugars l3 d14 l3, PS)”, the calcium oscillation score falls from 59 % of control to 40.1 % of control.

Compared with “TTAATTATCTGCACCTT (sugars l3 d10 l4, PS)”, “TTAATTATTAAATCTTCTCT (sugars l4 d12 l4, PS)” is higher in calcium oscillation score: 33.9 % of control for the first, 60.1 % of control for the second.

First: TTAATTCATAAATGACTATA (sugars l3 d14 l3, PS)
Second: TTAATTCATTTAATTCTCTT (sugars l4 d12 l4, PS)
The calcium oscillation score of the first is lower: 58.4 % of control for the first, 86.1 % of control for the second.

Going from TTAATTTCACCCTC (sugars l3 d8 l3, PS) to TTAATTTCACCCTCAG (sugars l3 d10 l3, PS), the calcium oscillation score falls from 44.1 % of control to 41.7 % of control.

Compared with TTACAAAGTCCACTTTC (sugars l4 d9 l4, PS), TTACAAGCATTTCAAG (sugars l3 d10 l3, PS) is lower in calcium oscillation score: 69 % of control for the first, 36.8 % of control for the second.

First: TTACACCACACTGTCG (sugars l3 d10 l3, PS)
Second: TTACACCATCCAAGTC (sugars l4 d9 l3, PS)
The calcium oscillation score of the first is lower: 32.1 % of control for the first, 101 % of control for the second.

Going from “TTACACCATCCAAGTCA (sugars l4 d11 l2, PS)” to “TTACACCATCCAAGTCAATG (sugars l3 d14 l3, PS)”, the calcium oscillation score falls from 75.5 % of control to 24.2 % of control.

Going from TTACACCCAAACCTAAA (sugars l4 d9 l4, PS) to “TTACCAATTATCTTTAAATT (sugars l4 d12 l4, PS)”, the calcium oscillation score falls from 92.3 % of control to 61.9 % of control.

First: TTACCATCCTATCTTCT (sugars l2 d11 l4, PS)
Second: TTACCATCCTATCTTCTA (sugars l2 d13 l3, PS)
The calcium oscillation score of the first is lower: 72.7 % of control for the first, 90.3 % of control for the second.

Going from “TTACCCATCTTAATTCATTT (sugars l4 d14 l2, PS)” to TTACCCTTAAATATGC (sugars l4 d8 l4, PS), the calcium oscillation score falls from 96.1 % of control to 73.3 % of control.

First: TTACTGATCATAATCCT (sugars l4 d10 l3, PS)
Second: TTACTTTCTACTCAATTCCA (sugars l3 d15 l2, PS)
The calcium oscillation score of the first is higher: 67.3 % of control for the first, 60.6 % of control for the second.

Compared with “TTAGACCACATTTCCAT (sugars l3 d11 l3, PS)”, “TTAGACTCCTTCTTTAGGCT (sugars l3 d14 l3, PS)” is lower in calcium oscillation score: 96 % of control for the first, 26.2 % of control for the second.

Compared with TTAGCAGAGGAACGTG (sugars l3 d10 l3, PS), TTAGCATCAGAGGTTT (sugars l3 d10 l3, PS) is lower in calcium oscillation score: 25.9 % of control for the first, 23.3 % of control for the second.

First: TTAGCCCTAAAGTCCC (sugars l3 d10 l3, PS)
Second: TTAGCCCTAAAGTCCCAGGT (sugars l3 d14 l3, PS)
The calcium oscillation score of the first is lower: 28.6 % of control for the first, 86.3 % of control for the second.

First: TTATACAGTTGGCCCTACCA (sugars l3 d14 l3, PS)
Second: TTATTAATTATCTGCA (sugars l3 d10 l3, PS)
The calcium oscillation score of the first is lower: 40.5 % of control for the first, 58.7 % of control for the second.

First: TTATTAATTCATAAATGACT (sugars l3 d14 l3, PS)
Second: TTATTCTTTTTTTTTCCACA (sugars l2 d14 l4, PS)
The calcium oscillation score of the first is higher: 42.3 % of control for the first, 30.3 % of control for the second.

First: TTATTTACACTGTCCTT (sugars l3 d10 l4, PS)
Second: TTATTTATTCTTTTTATTA (sugars l4 d11 l4, PS)
The calcium oscillation score of the first is higher: 54.1 % of control for the first, 45.2 % of control for the second.

First: TTATTTATTCTTTTTATTAT (sugars l4 d12 l4, PS)
Second: TTATTTCCAAATTCACTTTT (sugars l1 d17 l2, PS)
The calcium oscillation score of the first is lower: 66.3 % of control for the first, 166 % of control for the second.

Going from “TTATTTCCAAATTCACTTTT (sugars l2 d2 l2 d10 l4, PS)” to “TTATTTCCAAATTCACTTTT (sugars l2 d16 l2, PS)”, the calcium oscillation score rises from 123 % of control to 182 % of control.

Going from “TTATTTCCAAATTCACTTTT (sugars l3 d14 l3, PS)” to “TTATTTCCAAATTCACTTTT (sugars l4 d11 l2 d1 l2, PS)”, the calcium oscillation score falls from ≥ 200 % of control to 104 % of control.

Compared with “TTATTTCCAAATTCACTTTT (sugars l4 d11 l5, PS)”, “TTATTTCCAAATTCACTTTT (sugars l5 d10 l5, PS)” is higher in calcium oscillation score: 124 % of control for the first, ≥ 200 % of control for the second.

Going from “TTATTTCCAAATTCACTTTT (sugars l5 d11 l4, PS)” to “TTATTTCCAAATTCACTTTT (sugars ldlllddddddddddlldll, PS)”, the calcium oscillation score falls from 119 % of control to 70.3 % of control.

Going from “TTATTTCCAAATTCACTTTT (sugars llddldldddddddddllll, PS)” to “TTATTTCCAAATTCACTTTT (sugars llddlldddddddddldlll, PS)”, the calcium oscillation score rises from 118 % of control to 123 % of control.

Compared with “TTATTTCCAAATTCACTTTT (sugars llddlldddddddddlldll, PS)”, “TTATTTCCAAATTCACTTTT (sugars lldlddldddddddddllll, PS)” is higher in calcium oscillation score: 88.8 % of control for the first, 131 % of control for the second.

Compared with “TTATTTCCAAATTCACTTTT (sugars lldldlddddddddddllll, PS)”, “TTATTTCCAAATTCACTTTT (sugars lldldldddddddddldlll, PS)” is higher in calcium oscillation score: 88.8 % of control for the first, 106 % of control for the second.

First: TTATTTCCAAATTCACTTTT (sugars lldldldddddddddlldll, PS)
Second: TTATTTCCAAATTCACTTTT (sugars lldllddddddddddldlll, PS)
The calcium oscillation score of the first is higher: 110 % of control for the first, 81 % of control for the second.

Compared with “TTATTTCCAAATTCACTTTT (sugars lldllddddddddddlldll, PS)”, “TTATTTCCAAATTCACTTTT (sugars lllddldddddddddldlll, PS)” is lower in calcium oscillation score: 121 % of control for the first, 108 % of control for the second.

Compared with “TTATTTCCAAATTCACTTTT (sugars lllddldddddddddlldll, PS)”, “TTATTTCCAAATTCACTTTT (sugars llldlddddddddddldlll, PS)” is higher in calcium oscillation score: 114 % of control for the first, 116 % of control for the second.

Compared with “TTATTTCCAAATTCACTTTT (sugars llldldddddddddllddll, PS)”, “TTATTTCCAAATTCACTTTT (sugars lllldddddddddlddldll, PS)” is lower in calcium oscillation score: 110 % of control for the first, 96.5 % of control for the second.

Compared with “TTATTTCCAAATTCACTTTT (sugars lllldddddddddldlddll, PS)”, “TTCACACAACAAACTATTAT (sugars l4 d12 l4, PS)” is lower in calcium oscillation score: 102 % of control for the first, 70.7 % of control for the second.

Going from “TTCACCCCAAGACACAA (sugars l3 d11 l3, PS)” to TTCACTTAGTAACCAA (sugars l4 d8 l4, PS), the calcium oscillation score rises from 59 % of control to 62 % of control.

Compared with TTCAGGTCTGGCATGG (sugars l3 d10 l3, PS), TTCATCACCAAGTCCC (sugars l3 d11 l2, PS) is higher in calcium oscillation score: 1.9 % of control for the first, 51.4 % of control for the second.

“TTCATCACCAAGTCCCA (sugars l3 d12 l2, PS)” was tested, and the calcium oscillation score was 66.8 % of control.
